From ChEMBL document CHEMBL3994659, “Synthesis and antimicrobial evaluation of cationic low molecular weight amphipathic 1,2,3-triazoles” (Bioorg Med Chem Lett, 2017)
Calls of active or inactive are those of the source. No cut-off for these calls is given here.

Key:
[1] = tested on: Staphylococcus epidermidis; test: Inhibition of biofilm formation in Staphylococcus epidermidis at 50 ug/ml after overnight incubation by crystal violet staining based method; type: functional
MRC5 = test: Cytotoxicity against human MRC5 cells at <50 ug/ml; type: cell-based
Streptococcus agalactiae = test: Antibacterial activity against Streptococcus agalactiae group B ATCC 12386 after overnight incubation by photometric method; type: functional
Escherichia coli [2] = test: microbe, parasite or virus in culture; details: ATCC 25922
Description: Antibacterial activity against Escherichia coli ATCC 25922 after overnight incubation by photometric method

Staphylococcus aureus = test: Antibacterial activity against Staphylococcus aureus ATCC 25923 after overnight incubation by photometric method; type: functional
Enterococcus faecalis [3] = test: Antibacterial activity against Enterococcus faecalis ATCC 29212 at 50 ug/ml after overnight incubation by photometric method; type: functional
Pseudomonas aeruginosa [4] = test: microbe, parasite or virus in culture; details: ATCC 27853
Description: Antibacterial activity against Pseudomonas aeruginosa ATCC 27853 after overnight incubation by photometric method

Enterococcus faecalis [5] = test: Antibacterial activity against Enterococcus faecalis ATCC 29212 after overnight incubation by photometric method; type: functional
Escherichia coli [6] = test: Antibacterial activity against Escherichia coli ATCC 25922 at 50 ug/ml after overnight incubation by photometric method; type: functional
Pseudomonas aeruginosa [7] = test: Antibacterial activity against Pseudomonas aeruginosa ATCC 27853 at 50 ug/ml after overnight incubation by photometric method; type: functional

| Molecule | Activity (MRC5) | MIC (Streptococcus agalactiae) [µg/mL] | MIC (Staphylococcus aureus) [µg/mL] | further results |
| --- | --- | --- | --- | --- |
| CN(C)CCc1cn(Cc2cc(C(C)(C)C)cc(C(C)(C)C)c2)nn1.Cl | Non-Toxic | – | – | biofilm formation inhibition (active/not active) [1]: Active |
| CC(C)(C)c1cc(Cn2cc(CCN)nn2)cc(C(C)(C)C)c1.Cl | Non-Toxic | 40 | 40 | MIC (Escherichia coli [2]): 40 µg/mL; biofilm formation inhibition (active/not active) [1]: Active; Activity (Enterococcus faecalis [3]): inactive; MIC (Pseudomonas aeruginosa [4]): 50 µg/mL |
| Cl.N=C(N)NCCc1cn(Cc2ccccc2)nn1 | Non-Toxic | – | – | – |
| Cl.N=C(N)NCCCc1cn(Cc2cc(C(F)(F)F)cc(C(F)(F)F)c2)nn1 | Non-Toxic | – | – | – |
| CC(C)(C)c1cc(-n2cc(CCCNC(=N)N)nn2)cc(C(C)(C)C)c1.Cl | – | 4 | 4 | MIC (Escherichia coli [2]): 16 µg/mL; MIC (Enterococcus faecalis [5]): 16 µg/mL; MIC (Pseudomonas aeruginosa [4]): 16 µg/mL |
| CCCCCCCOc1ccc(-n2cc(CCCN)nn2)cc1.Cl | – | 8 | 16 | MIC (Escherichia coli [2]): 8 µg/mL; MIC (Enterococcus faecalis [5]): 16 µg/mL; MIC (Pseudomonas aeruginosa [4]): 16 µg/mL |
| Cl.NCCc1cn(Cc2cc(C(F)(F)F)cc(C(F)(F)F)c2)nn1 | Non-Toxic | – | – | – |
| CC(C)(C)c1cc(Cn2cc(CCNC(=N)N)nn2)cc(C(C)(C)C)c1.Cl | Non-Toxic | 10 | 20 | MIC (Escherichia coli [2]): 50 µg/mL; biofilm formation inhibition (active/not active) [1]: Active; MIC (Enterococcus faecalis [5]): 40 µg/mL; MIC (Pseudomonas aeruginosa [4]): 40 µg/mL |
| CN(C)CCc1cn(Cc2cc(C(F)(F)F)cc(C(F)(F)F)c2)nn1.Cl | Non-Toxic | – | – | – |
| Cl.NCCc1cn(Cc2ccc3ccccc3c2)nn1 | Non-Toxic | – | – | – |
| Cl.NCCc1cn(Cc2ccccc2)nn1 | Non-Toxic | – | – | – |
| CN(C)CCc1cn(Cc2ccc3ccccc3c2)nn1.Cl | Non-Toxic | – | – | – |
| Cl.N=C(N)NCCCc1cn(Cc2ccc3ccccc3c2)nn1 | Non-Toxic | – | – | biofilm formation inhibition (active/not active) [1]: Active |
| CN(C)CCCc1cn(Cc2ccccc2)nn1.Cl | Non-Toxic | – | – | – |
| Cl.NCCCc1cn(Cc2cc(C(F)(F)F)cc(C(F)(F)F)c2)nn1 | Non-Toxic | – | – | – |
| Cl.N=C(N)NCCc1cn(Cc2ccc3ccccc3c2)nn1 | Non-Toxic | – | – | – |
| Cl.NCCCc1cn(Cc2ccccc2)nn1 | Non-Toxic | – | – | – |
| CN(C)CCCc1cn(Cc2ccc3ccccc3c2)nn1.Cl | Non-Toxic | – | – | – |
| CN(C)CCCc1cn(Cc2cc(C(F)(F)F)cc(C(F)(F)F)c2)nn1.Cl | Non-Toxic | – | – | – |
| CN(C)CCCc1cn(Cc2cc(C(C)(C)C)cc(C(C)(C)C)c2)nn1.Cl | Non-Toxic | 50 | 40 | Activity (Escherichia coli [6]): inactive; biofilm formation inhibition (active/not active) [1]: Active; Activity (Pseudomonas aeruginosa [7]): inactive; Activity (Enterococcus faecalis [3]): inactive |
| CC(C)(C)c1cc(Cn2cc(CCCNC(=N)N)nn2)cc(C(C)(C)C)c1.Cl | Non-Toxic | 10 | 10 | MIC (Escherichia coli [2]): 40 µg/mL; biofilm formation inhibition (active/not active) [1]: Active; MIC (Enterococcus faecalis [5]): 40 µg/mL; MIC (Pseudomonas aeruginosa [4]): 40 µg/mL |
| CCCCCCCOc1ccc(-n2cc(CCCNC(=N)N)nn2)cc1.Cl | – | 4 | 4 | MIC (Escherichia coli [2]): 8 µg/mL; MIC (Enterococcus faecalis [5]): 8 µg/mL; MIC (Pseudomonas aeruginosa [4]): 8 µg/mL |
| Cl.N=C(N)NCCc1cn(Cc2cc(C(F)(F)F)cc(C(F)(F)F)c2)nn1 | Non-Toxic | – | – | – |
| Cl.N=C(N)NCCCc1cn(Cc2ccccc2)nn1 | Non-Toxic | – | – | – |
| CN(C)CCc1cn(Cc2ccccc2)nn1.Cl | Non-Toxic | – | – | – |
| CC(C)(C)c1cc(-n2cc(CCCN)nn2)cc(C(C)(C)C)c1.Cl | – | 16 | 16 | MIC (Escherichia coli [2]): 16 µg/mL; MIC (Enterococcus faecalis [5]): 32 µg/mL; MIC (Pseudomonas aeruginosa [4]): 32 µg/mL |
| CC(C)(C)c1cc(Cn2cc(CCCN)nn2)cc(C(C)(C)C)c1.Cl | Non-Toxic | – | – | biofilm formation inhibition (active/not active) [1]: inactive |
| Cl.NCCCc1cn(Cc2ccc3ccccc3c2)nn1 | Non-Toxic | – | – | – |
| GENTAMICIN | – | 4 | 0.13 | MIC (Enterococcus faecalis [5]): 10 µg/mL |
